Test [1] relates to Mycosphaerella graminicola; Anamorph: Septoria tritici. Kind of test: Leaf blotch of wheat (SEPTTR) disease control on wheat seedlings. In kind it is in vivo. The note with it: Zymoseptoria tritici; for pest or weed control at 121.5 g/ha: low volume application, 121.5 g/H. A digest of the protocol:
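Wheat seedlings (Yuma, first leaf emerged) sprayed to run-off with compound in acetone/water with 110 ppm Triton X-100, or track-sprayed as EC with 0.1% Trycol 5941. Septoria tritici spores inoculated before or after treatment. Dew chambers, then 20 °C greenhouse. Percent disease control derived from severity (0–100%) relative to untreated plants.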

Test [2] has as its system Puccinia triticina; Synonym: Puccinia recondite f. sp. tritici. Put plainly: Wheat brown rust (PUCCRT) disease control on wheat seedlings. In kind it is in vivo. The note with it: Puccinia triticina; for pest or weed control at 121.5 g/ha: low volume application, 121.5 g/H. In a few lines: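 Acetone solutions diluted in nine volumes of water with 110 ppm Triton X-100 sprayed to run-off on first-leaf Yuma wheat seedlings (track spray: EC with 0.1% Trycol 5941). Puccinia triticina spores inoculated before or after treatment; overnight dark dew at 22° C., 100% RH, then greenhouse at 24° C. for disease development.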

Setting [3] is: 24 h, High volume application, 1 Day Protectant, read-out: SEPTTR 1DP disease control.
Where [4] appears, read: 72 h, High volume application, 3 Day Curative, read-out: SEPTTR 3DC disease control.
Where [5] appears, read: 24 h, High volume application, 1 Day Protectant, read-out: PUCCRT 1DP disease control.
[6] abbreviates: 72 h, High volume application, 3 Day Curative, read-out: PUCCRT 3DC disease control.
Setting [7] is: 24 h, Wheat Leaf Blotch, 1 Day Protectant, high volume application, read-out: Disease Control SEPTTR 1 DP 100 ppm.
Where [8] appears, read: 72 h, Wheat Leaf Blotch, 3 Day Curative, high volume application, read-out: Disease Control SEPTTR 3 DC 100 ppm.
[9] abbreviates: 24 h, Wheat Brown Rust, 1 Day Protectant, high volume application, read-out: Disease Control PUCCRT 1 DP 100 ppm.
Where [10] appears, read: 72 h, Wheat Brown Rust, 3 Day Curative, high volume application, read-out: Disease Control PUCCRT 3 DC 100 ppm.
Where [11] appears, read: 24 h, Wheat Leaf Blotch, 1 Day Protectant, read-out: Disease Control SEPTTR 1 DP 121.5 g/H.
Setting [12] is: 72 h, Wheat Leaf Blotch, 3 Day Curative, read-out: Disease Control SEPTTR 3 DC 121.5 g/H.
[13] abbreviates: 24 h, Wheat Brown Rust, 1 Day Protectant, read-out: Disease Control PUCCRT 1 DP 121.5 g/H.
[14] abbreviates: 72 h, Wheat Brown Rust, 3 Day Curative, read-out: Disease Control PUCCRT 3 DC 121.5 g/H.

This note sets out measurements from patent US9681664B2, “Macrocyclic picolinamides as fungicides” (Dow Agrosciences LLC, priority 2012, dated 2017).

Like-named read-outs stand apart in the source and are kept apart here.

As for `COc1ccc(O[C@H]2CCC[C@H](NC(=O)c3nccc(OC)c3O)C(=O)O[C@@H](C)[C@@H]2OC2CCCC2)cc1` [F167], the pest or weed control at 100 ppm in test [1] (setting [3]), in test [1] (setting [4]), in test [2] (setting [5]) and in test [2] (setting [6]) was 80 to 100% in each case.

With `COc1ccnc(C(=O)N[C@H]2CCC[C@H](OCCCC(F)(F)F)[C@@H](OC3CCCC3)[C@H](C)OC2=O)c1O` [F168], the pest or weed control at 100 ppm in test [1] (setting [3]), in test [1] (setting [4]), in test [2] (setting [5]) and in test [2] (setting [6]) was 80 to 100% throughout.

Turning to `COc1ccnc(C(=O)N[C@H]2CCC[C@H](OCC(C)C)[C@@H](OC3CCCCC3)[C@H](C)OC2=O)c1O` [F210], the pest or weed control at 100 ppm in test [1] (setting [3]), in test [1] (setting [4]), in test [2] (setting [5]) and in test [2] (setting [6]) was 80 to 100% in each case.

Turning to `COc1ccnc(C(=O)N[C@H]2CCC[C@H](OC3CCCCC3)[C@@H](OCC(C)C)[C@H](C)OC2=O)c1O` [F211], the pest or weed control at 100 ppm in test [1] (setting [3]), in test [1] (setting [4]), in test [2] (setting [5]) and in test [2] (setting [6]) was 80 to 100% throughout.

Consider `COc1ccnc(C(=O)N[C@H]2CCC[C@H](OCC(C)C)[C@@H](OCCCc3ccccc3)[C@H](C)OC2=O)c1OC(C)=O` [F214], for which the pest or weed control at 100 ppm in test [1] (setting [3]), in test [1] (setting [4]), in test [2] (setting [5]) and in test [2] (setting [6]) was 80 to 100% each time.

`COCCC(=O)Oc1c(OC)ccnc1C(=O)N[C@H]1CCC[C@H](OCC(C)C)[C@@H](OCCCc2ccccc2)[C@H](C)OC1=O` [F215]: the pest or weed control at 100 ppm in test [1] (setting [3]), in test [1] (setting [4]), in test [2] (setting [5]) and in test [2] (setting [6]) was 80 to 100% in each case.

As to `COc1ccnc(C(=O)N[C@H]2CCC[C@H](OCC(C)C)[C@@H](OCCCC(F)(F)F)[C@H](C)OC2=O)c1OC(C)=O` [F216], the pest or weed control at 100 ppm in test [1] (setting [3]), in test [1] (setting [4]), in test [2] (setting [5]) and in test [2] (setting [6]) was 80 to 100% in each case.

For `COc1ccnc(C(=O)N[C@H]2CCC[C@H](OCC(C)C)[C@@H](OC(=O)C3CCCC3)[C@H](C)OC2=O)c1OCOC(=O)C(C)C` [F218], the pest or weed control at 100 ppm in test [1] (setting [3]) lay in the range of 80 to 100%; in test [1] (setting [4]) it was 0 to 80%; in test [2] (setting [5]), 80 to 100%; in test [2] (setting [6]) it was 80 to 100%.

`COc1ccnc(C(=O)N[C@H]2CCC[C@H](OCCCc3ccccc3)[C@@H](OCC(C)C)[C@H](C)OC2=O)c1O` [F219]: the pest or weed control at 100 ppm in test [1] (setting [3]) fell in the range of 80 to 100%; in test [1] (setting [4]), 0 to 80%; in test [2] (setting [5]), 80 to 100%; in test [2] (setting [6]) it was 80 to 100%.

Take `C=C(C)CO[C@H]1CCC[C@H](NC(=O)c2nccc(OC)c2O)C(=O)O[C@@H](C)[C@@H]1OCC(C)C` [F220]: the pest or weed control at 100 ppm in test [1] (setting [3]), in test [1] (setting [4]), in test [2] (setting [5]) and in test [2] (setting [6]) was 80 to 100% throughout.

In the case of `COc1ccnc(C(=O)N[C@H]2CCC[C@H](OC(=O)C3CCCC3)[C@@H](OCC(C)C)[C@H](C)OC2=O)c1O` [F221], the pest or weed control at 100 ppm in test [1] (setting [3]) fell in the range of 80 to 100%; in test [1] (setting [4]), 0 to 80%; in test [2] (setting [5]), 80 to 100%; in test [2] (setting [6]), 0 to 80%.

In the case of `COc1ccnc(C(=O)N[C@H]2CCC[C@H](OCCCc3ccccc3)[C@@H](OCC(C)C)[C@H](C)OC2=O)c1OCOC(C)=O` [F222], the pest or weed control at 100 ppm in test [1] (setting [3]), in test [1] (setting [4]), in test [2] (setting [5]) and in test [2] (setting [6]) was 80 to 100% in each case.

As to `COc1ccnc(C(=O)N[C@H]2CCC[C@H](OC(=O)C3CCCC3)[C@@H](OCC(C)C)[C@H](C)OC2=O)c1OCOC(C)=O` [F223], the pest or weed control at 100 ppm in test [1] (setting [3]), in test [1] (setting [4]), in test [2] (setting [5]) and in test [2] (setting [6]) was 80 to 100% each time.

Turning to `COc1ccnc(C(=O)N[C@H]2CCC[C@H](OCCCc3ccccc3)[C@@H](OC3CCCC3)[C@H](C)OC2=O)c1O` [F224], the pest or weed control at 100 ppm was in the range of 0 to 80% in test [1] (setting [3]), 0 to 80% in test [1] (setting [4]), 80 to 100% in test [2] (setting [5]) and 0 to 80% in test [2] (setting [6]).

As for `COc1ccnc(C(=O)N[C@H]2CCC[C@H](OCCCc3ccccc3)[C@@H](OC3CCCC3)[C@H](C)OC2=O)c1OCOC(C)=O` [F225], the pest or weed control at 100 ppm in test [1] (setting [3]), in test [1] (setting [4]), in test [2] (setting [5]) and in test [2] (setting [6]) was 80 to 100% each time.

As to `COc1ccnc(C(=O)N[C@H]2CCC[C@H](Oc3ccccc3)[C@@H](OC(=O)C3CCCC3)[C@H](C)OC2=O)c1O` [F232], the pest or weed control at 100 ppm in test [1] (setting [7]) lay within 80 to 100%; in test [1] (setting [8]) it was 0 to 80%; in test [2] (setting [9]) it was 80 to 100%; in test [2] (setting [10]), 80 to 100%.

Consider `COc1ccnc(C(=O)N[C@H]2CCC[C@H](Oc3ccccc3)[C@@H](OC(=O)C3CCCC3)[C@H](C)OC2=O)c1OCOC(C)=O` [F233], for which the pest or weed control at 100 ppm in test [1] (setting [7]), in test [1] (setting [8]), in test [2] (setting [9]) and in test [2] (setting [10]) was 80 to 100% in each case. The pest or weed control at 121.5 g/ha is 80 to 100% in test [1] (setting [11]), 80 to 100% in test [1] (setting [12]), 80 to 100% in test [2] (setting [13]) and 0 to 80% in test [2] (setting [14]).

With `COc1ccnc(C(=O)N[C@H]2CCC[C@H](Oc3ccccc3)[C@@H](OC(=O)C3CCCC3)[C@H](C)OC2=O)c1OCOC(=O)C(C)C` [F234], the pest or weed control at 100 ppm in test [1] (setting [7]), in test [1] (setting [8]), in test [2] (setting [9]) and in test [2] (setting [10]) was 80 to 100% in each case. The pest or weed control at 121.5 g/ha is 80 to 100% in test [1] (setting [11]), < 0% in test [1] (setting [12]), 80 to 100% in test [2] (setting [13]) and < 0% in test [2] (setting [14]).

With `COc1ccnc(C(=O)N[C@H]2CCC[C@H](Oc3ccccc3)[C@@H](OC(=O)C3CCCC3)[C@H](C)OC2=O)c1OC(C)=O` [F235], the pest or weed control at 100 ppm in test [1] (setting [7]), in test [1] (setting [8]), in test [2] (setting [9]) and in test [2] (setting [10]) was 80 to 100% throughout. The pest or weed control at 121.5 g/ha in test [1] (setting [11]) lay within 80 to 100%; in test [1] (setting [12]), 0 to 80%; in test [2] (setting [13]) it was 80 to 100%; in test [2] (setting [14]) it was 0 to 80%.

As for `COc1ccnc(C(=O)N[C@H]2CCC[C@H](Oc3ccccc3)[C@@H](OC(=O)C3CCCC3)[C@H](C)OC2=O)c1OC(=O)C1CC1` [F236], the pest or weed control at 100 ppm in test [1] (setting [7]) lay in the range of 0 to 80%; in test [1] (setting [8]) it was 0 to 80%; in test [2] (setting [9]) it was 80 to 100%; in test [2] (setting [10]), 0 to 80%. For the same compound, the pest or weed control at 121.5 g/ha in test [1] (setting [11]) is 80 to 100%; in test [1] (setting [12]), 0 to 80%; in test [2] (setting [13]), 0 to 80%; in test [2] (setting [14]), < 0%.

Take `COc1ccnc(C(=O)N[C@H]2CCC[C@H](Oc3ccccc3)[C@@H](OC(=O)C3CC3)[C@H](C)OC2=O)c1O` [F239]: the pest or weed control at 100 ppm is < 0% in test [1] (setting [7]), 0 to 80% in test [1] (setting [8]), 0 to 80% in test [2] (setting [9]) and < 0% in test [2] (setting [10]).

Consider `COc1ccnc(C(=O)N[C@H]2CCC[C@H](Oc3ccccc3)[C@@H](OC(=O)C3CC3)[C@H](C)OC2=O)c1OCOC(C)=O` [F240], for which the pest or weed control at 100 ppm in test [1] (setting [7]), in test [1] (setting [8]), in test [2] (setting [9]) and in test [2] (setting [10]) was 80 to 100% each time. Further, the pest or weed control at 121.5 g/ha in test [1] (setting [11]), in test [1] (setting [12]), in test [2] (setting [13]) and in test [2] (setting [14]) was 80 to 100% throughout.

For `C=C(C)CO[C@H]1CCC[C@H](NC(=O)c2nccc(OC)c2O)C(=O)O[C@@H](C)[C@@H]1OC` [F245], the pest or weed control at 100 ppm fell in the range of 0 to 80% in test [1] (setting [7]), 80 to 100% in test [1] (setting [8]), 80 to 100% in test [2] (setting [9]) and 0 to 80% in test [2] (setting [10]).
